In patent publication US20150132342A1, “NOVEL IMMUNE ACTIVATORS: SUBSTITUTE 4-AMINOQUINAZOLINES” (The Regents of the University of California, priority 2013, published 2015):

What was measured:
[1] = test system: human TLRs (TLR2, TLR3, TLR4/MD-2/CD14, TLR5, TLR7, TLR8 or TLR9); assay: Human TLR-transfected HEK293 NF-κB SEAP reporter cell panel; format: cell-based; settings: 10 μM, 20-24 h
Description: To identify the target receptor, we used HEK293 cells stably transfected with the following human TLRs (TLR2, TLR3, TLR4/MD-2/CD14, TLR5, TLR7, TLR8 or TLR9) along with an NF-κB activation reporter producing Secreted Alkaline Phosphatase (SEAP, FIG. 1A). To further confirm that TLR4 was indeed the receptor, compound 1a was assayed for IL-6 production in mBMDCs from wild type and TLR4 deficient mice (FIG. 1B). […] TLR4 signals through two distinct pathways, leading respectively to NF-κB dependent cytokines and type I interferon (IFN) production. Several naturally occurring TLR4 ligands and MPLA have been reported to require CD14 to activate the IFN regulatory pathway. The hTLR4 reporter cell line (FIG. 1A) also overexpresses hMD-2 and hCD14, which are TLR4 accessory proteins.
In vitro assays using TLR reporter cell lines. Murine or humanTLR4 HEK Blue™ cells (Invivogen, 2.5×10^4 cells per well of a 96 well plate), or NF-κB/SEAPorter™ HEK 293 cells (Imgenex, San Diego, Calif.) for human TLR2, TLR3, TLR5, TLR7, TLR8, or TLR9 (5×10^4 cells per well of 96 well plate) were incubated with graded doses of the test compound. […] Secreted alkaline phosphatase (SEAP) activity in the supernatants was determined by a colorimetric assay, using either the SEAPorter Assay Kit (Imgenex, San Diego, Calif.), with absorbance read at 405 nm, or QuantiBlue (Invivogen), with absorbance read at 630 nm. […]

[2] = test system: human PBMC; assay: Type I IFN release by hPBMC measured in L929-ISRE luciferase reporter cells; format: cell-based; settings: 10 μM, overnight; LPS 10 ng/mL comparator
Description: Type I interferon (IFN) assay. L929 cells stably expressing an IFN sensitive response element (ISRE) luciferase reporter construct were kindly provided by Dr. B. Beutler (UT Southwestern, Dallas, Tex.)^7. The bioactivity oftype I IFN in hPBMC supernatants was measured by luciferase assay using L929-ISRE cells as described previously.^7 L929-ISRE cells were plated at 5×10^4 cells per well inDulbecco's Modified Eagle Medium (Life Technologies) supplemented with 10% FCS, 100 U/mL penicillin and 100 μg/mL streptomycinin a 96-well white-walled clear-bottom plate and incubated overnight. Thus, 50 μL of supernatant was incubated with L929-ISRE cells in 50 μL of DMEM for 6 h. The luciferase activities were measured by GloBrightLuciferase Assay Buffer (Promega, Madison, Wis.).

[3] = test system: mBMDC; assay: Co-stimulatory molecule expression in CD11c+ mBMDC (flow cytometry); format: cell-based, mouse; settings: CD11c+ population
Description: (§1) FIG. 2. Compound 1a induces type I IFN and expression of co-stimulatory molecules. A) Human PBMC were incubated with compound 1a (10 μM), LPS (10 ng/mL), or vehicle overnight. The release of type I IFN in the culture supernatants was measured by luciferase release in L929-ISRE reporter cells. Data shown are mean±SEM of triplicates. B) Compound 1a- or vehicle-treated wild type or Tlr4^−/−mBMDC were stained for CD11c and either CD40, CD80, or CD86. The expression levels of CD40, CD80, or CD86 were evaluated in the gated CD11c^+ population. DMSO 0.5% served as the vehicle control. C) Human PBMC were incubated with compound 1a (5 μM) overnight. CD80 and CD83 expression in gated CD11c^+ HLA-DR^+ population was analyzed by flow cytometer. Data are representative of two independent experiments showing similar results.
(§2) To evaluate whether treatment of DCs with this compound can induce maturation in these cells, mBMDC prepared from wild type or TLR4 deficient mice were exposed to compound 1a and then assayed for expression of co-stimulatory molecules CD40, CD80, and CD86 in the CD11c+ population (FIG. 2B). […] Induction of co-stimulatory molecules by compound 1a was also confirmed in human PBMC.

[4] = test system: human PBMC; assay: CD80 and CD83 expression in CD11c+ HLA-DR+ human PBMC (flow cytometry); format: cell-based; settings: 5 μM overnight; CD11c+HLA-DR+ gated population
Description: as §1, §2

[5] = test system: THP-1 cells; assay: CellSensor NF-κB-bla THP-1 FRET β-lactamase reporter assay; format: cell-based, human; settings: graded concentrations, normalized to LPS
Description: The assay with CellSensor® NF-κB-bla THP-1 cells was performed almost identically to that with CellSensor® NF-κB-bla RAW 264.7 cells, except that cells were harvested, resuspended, and plated in RPMI (plus 10% dialyzed FBS, 0.1 mM non-essential amino acids, 1 mM sodium pyruvate, 100 U/ml penicillin and 100 μg/ml streptomycin) and incubated with drugs for only 5 h prior to addition of the 6× substrate mixture. Plates were then incubated for 2 h prior to measurement of fluorescence.

[6] = test system: human PBMC; assay: MTT viability of human PBMC; format: cell-based; settings: 10 μM, 18 h incubation

**Q.** How did the “NF-κB activation (SEAP) across TLR transfected cells” value [1] turn out when CCOC(=O)c1nc(Nc2cc(Oc3ccccc3)cc([N+](=O)[O-])c2)c2ccccc2n1 [Compound 1a, Ethyl 4-((3-nitro-5-phenoxyphenyl)amino)quinazoline-2-carboxylate] was run?
**A.** only those expressing TLR4/MD-2/CD14 responded

**Q.** And the “Release of type I IFN” value [2]?
**A.** comparable to that of LPS

**Q.** And the “Expression of co-stimulatory molecules CD40, CD80, CD86” value ([3]; TLR4 deficient mBMDC)?
**A.** not in the TLR4 deficient cells

**Q.** What about the “Expression of co-stimulatory molecules CD40, CD80, CD86” value ([3]; wild type mBMDC) of the same molecule?
**A.** increased

**Q.** And the “Expression of CD80 and CD83” value [4]?
**A.** increased expression of CD80 and CD83

**Q.** And the “NF-κB activation potency, human THP-1 versus mouse RAW264.7” value [5]?
**A.** significantly more potent

**Q.** What about the “Viability by MTT assay” value [6] of the same molecule?
**A.** 112±2.1%
